What all share (type): cell-based, human
For one assay, the system named is HIPEC monolayers. As to the kind of experiment: Inulin permeability of HIPEC monolayers grown on TransWell filters, with or without pro-inflammatory cytokines. The settings on record: cytokine treatment 24 hrs, 3H-labeled Inulin, +/- standard error. On the procedure:
Intestinal stem cell derived primary epithelial cell mono layers were tested for Inulin permeability.
Confluent monolayers of HIPEC cells were grown on transwell membranes in triplicates. Cells were then treated with or without pro-inflammatory cytokines for 24 hrs. ^3H-labeled Inulin was added to the upper chamber. Aliquots of medium retrieved from the upper and lower chambers were counted.
The % amount of inulin activity transported from the upper to the lower chamber was determined. The results are shown in Table 5 below, along with the standard error.

A further assay relates to HIPEC line A2J1. As to the kind of experiment: qPCR of markers for mature phenotype cells in HIPEC line upon cytokine stimulation. Particulars: 1 ng/ml IL-1b or 25 ng/ml TNFα (24 hrs). The procedure:
Using qPCR, the HIPEC line was also tested for various markers for mature phenotype cells, including the following cell subtypes: enteroendocrine; Goblet; Paneth; and enterocyte. The following markers were used, with the corresponding cell subtypes in parentheses: Somatostatin (enteroendocrine); Glucagon (enteroendocrine); Lysozyme (Goblet/Paneth); Defensin 5 (Goblet/Paneth); Trefoil factor 3 (Goblet/Paneth); Mucin 2 (Goblet/Paneth); Sucrose isomaltase (enterocyte); Carbonic anhydrase (enterocyte); Cd×2 promoter (enterocyte); and Guanylate cyclase c (enterocyte). Data from these tests supported a Goblet/secretory differentiation profile for the HIPEC line identified as A2J1 (derived from jejunem tissue).
On the technique in general: Real-time PCR tracks product formation cycle by cycle.

Another assay has as its system HIPEC line (A2J1). As to the kind of experiment: Response to inflammatory mediators, IL-8 read-out. The settings on record: stimulators at various concentrations. The procedure:
Using both IL-8 and MIP-3α read-out procedures, an HIPEC line of the present invention (A2J1) was tested for response to various inflammatory mediators (stimulators). The HIPEC line was compared to a Caco-2 cell line. The following stimulators were used at various concentrations: IL-1β; TNFα; IFNγ; Pam3CSK4 (TLR2); LPS (TLR4); and Flagellin (TLR5).

A further assay has as its system TLR2. As to the kind of experiment: Regulation of TLR expression by LPS on hGISC-derived primary epithelial cell line (FIG. 18). Particulars: LPS stimulation of HIPEC line, preliminary experiment.
A further assay has as its system TLR4. The assay is described as above. The settings on record: LPS stimulation of HIPEC line, preliminary experiment.
A further assay deals with TLR6. The description is as above. Particulars: LPS stimulation of HIPEC line, preliminary experiment.
The test system of assay [1] is hGISC derived primary ECs. Put plainly: Nitric oxide production after immunostimulation, Griess reaction assay. Particulars: agent alone; LPS (1 μm/ml), IFN-γ (200 u/ml); 24 hours; culture supernatants. The text has this: (§1) Therefore, to gain insight about NO production regulation by intestinal EC, the effects of innate (LPS) and adaptive (IFN-γ) immunostimulatory agents on embodiments of the hGISC cell system derived non-transformed primary epithelial cells (EC) were studied and compared to a colonic adenocarcinoma EC line HT29.
[…] Cell free culture supernatants were collected and analyzed for NO content using a Griess Reaction kit (e.g., Griess Reagent System, Part #TB229) (PROMEGA, Madison, Wis.) in accordance with the manufacturer's instructions.
(§2) In another assay for NO, a macrophage cell line MHS served as a positive control. Cells were cultured with/without LPS (1 μm/ml), IFN-γ (200 u/ml), or in combination for 24 hours. Culture supernatants were analyzed for NO content by Griess reaction assay (as mentioned herein).

Another assay relates to HT29 cells. The assay is described as above. Particulars: agent alone; LPS (1 μm/ml), IFN-γ (200 u/ml); 24 hours; culture supernatants. The procedure: as §1, §2
[2] abbreviates: Experiment #1, Medium Only 35.5% +/− 5.3.
Where [3] appears, read: Experiment #2, Medium Only 41.6% +/− 0.96.
Where [4] appears, read: Experiment #3, Medium Only 43.6% +/− 1.16.

“IL-1β: pro-inflammatory cytokine; interleukin”: the “% amount of inulin activity transported from the upper to the lower chamber” value (from here on “% amount … from the upper to the lower chamber”) with HIPEC monolayers (setting [2]) was found to be 43.5% +/− 1.36; with HIPEC monolayers (setting [3]), 50.4% +/− 0.94; in the assay with HIPEC monolayers (setting [4]), 54.0% +/− 1.59. Besides, the “change in phenotype upon stimulation” value in the assay with HIPEC line A2J1 is reported as “no change in phenotype”. Besides, the IL-8 response result in the assay with HIPEC line (A2J1) is “responsive”.
With IL-6: pro-inflammatory cytokine, the “% amount … from the upper to the lower chamber” value in the assay with HIPEC monolayers (setting [2]) was 36.5% +/− 0.48; in the assay with HIPEC monolayers (setting [3]) it was 41.8% +/− 0.59.
For the molecule lipopolysaccharide [LPS], the TLR2 expression entry in the assay on TLR2 is recorded as “upregulated”. The TLR4 expression result in the assay on TLR4 is “upregulated”. Besides, the TLR6 expression result in the assay on TLR6 is listed as “upregulated”. Also, the NO production entry (in assay [1]; in the assay on HT29 cells) was “neither LPS nor IFN-γ alone affect NO production” throughout.
Turning to tumor necrosis factor alpha [TNF-α], the “% amount … from the upper to the lower chamber” value was 41.2% +/− 0.66 in the assay with HIPEC monolayers (setting [2]), 46.6% +/− 1.05 with HIPEC monolayers (setting [3]) and 49.0% +/− 1.95 in the assay with HIPEC monolayers (setting [4]). Moreover, the “change in phenotype upon stimulation” value with HIPEC line A2J1 was “no change in phenotype”. In addition, the IL-8 response result in the assay on HIPEC line (A2J1) is reported as “responsive”.
As to “IFN-γ: interferon; adaptive immunostimulatory agent”, the “% amount … from the upper to the lower chamber” value is listed as 36.0% +/− 2.8 with HIPEC monolayers (setting [2]), 42.6% +/− 2.07 in the assay on HIPEC monolayers (setting [3]) and 42.7% +/− 0.30 in the assay with HIPEC monolayers (setting [4]). Further, the NO production result (in assay [1]; with HT29 cells) was “neither LPS nor IFN-γ alone affect NO production” in each case. The IL-8 response result in the assay with HIPEC line (A2J1) was “responsive”.

B1: IL-1α: pro-inflammatory cytokine (protein, UniProt P01583 113-271, looked up)
Interleukin-1 alpha: SAPFSFLSNVKYNFMRIIKYEFILNDALNQSIIRANDQYLTAAALHNLDEAVKFDMGAYKSSKDDAKITVILRISKTQLYVTAQDEDQPVLLKEMPEIPKTITGSETNLLFFWETHGTKNYFTSVAHPNLFIATKQDYWVCLAGGPPSITDFQILENQA
For the molecule B1, the “% amount … from the upper to the lower chamber” value with HIPEC monolayers (setting [2]) is 40.0% +/− 3.6; with HIPEC monolayers (setting [3]), 47.4% +/− 0.59; in the assay on HIPEC monolayers (setting [4]), 50.7% +/− 0.40.

The values above are taken from US8367316B2, “Human gastrointestinal stem cell-derived primary intestinal epithelial cell system and methods of use thereof” (AlfaGene Bioscience, Inc., priority 2009, dated 2013).
